Patent EP0845217A1, “Inhibiting undesirable taste in oral compositions” (priority 1996, dated 1998)

Tests used:
mud puppy taste cells = test: Response of isolated taste cells to bitter-tasting compounds, intracellular calcium fluorescence; type: cell-based
Method: Taste cells are isolated from the mud puppy, a type of salamander (S. C. Kinnamon, et al, Chemical Senses 13: 355 - 366, 1988). Briefly, a fresh mud puppy tongue is incubated with collagenase, the non-gustatory epithelium is peeled off the surface, and individual taste buds are gently drawn into a micropipette using a dissecting microscope at 50X magnification. The taste buds are plated into small vessels, that are coated with Cell-Tak, containing culture media. The taste cells can remain viable up to 18 days and maintain normal functions (C. Ruiz, et al, Experimental Cell Biology of Taste and Olfaction, Current Techniques and Protocols, A. I. Spielman and J. G. Brand, eds., CRC Press, 1995, pp. 79 - 84). The taste cells are labeled intracellularly with a marker compound that fluoresces in a dose-dependent fashion to calcium ion concentration. Since an increase in the intracellular calcium ion concentration is one of the last steps in converging biochemical signal transduction pathways for bitterness, the fluorescent marker correlates with taste cell response to bitterness (D. Restrepo, et al, Experimental Cell Biology of Taste and Olfaction, Current Techniques and Protocols, A. I. Spielman and J. G. Brand, eds., CRC Press, 1995, pp. 387 - 398). Labeled taste cells are observed microscopically using image analysis software. Using a micropipette, taste cells are exposed to bitter-tasting compounds by adding the compounds in media near the taste cell. Cells that respond to the bitter-tasting compound show an increase in fluorescence intensity. Bitter inhibitors are tested by adding them to the test solution with the bitter-tasting compound. The response of individual taste cells to bitter-tasting compounds and to bitter-tasting compounds plus inhibitor are monitored by measuring the fluorescent intensity using a microscope. Images are stored electronically and image analysis software is used to analyze the data (D. Restrepo, et al, Biophysical Journal 64: 1961 - 1966, 1993).

[1] = tested on: human taste response to bitter-tasting compounds; test: Human taste test: detection threshold of bitter-tasting compounds with and without VMP; type: in vivo; details: 0.3% VMP
Method: In the first taste test, the detection threshold for a bitter-tasting compound is determined by having subjects taste a series of solutions containing increasing concentrations of the bitter-tasting compound. None of the subjects are able to taste the bitterness in the first solution containing the lowest concentration of the bitter-tasting molecule. The subjects are instructed to indicate the first, or lowest concentration of solution that is sensed as bitter. This concentration is the detection threshold for that particular compound and subject. […] The detection threshold for the bitter-tasting compound plus inhibitor is likewise determined. All of these aqueous solutions contain 5% sucrose. […] The dilution series are in ^1/2 log increments (i.e., 1 uM, 3.2 uM, 10 uM, 32 uM). The pair of dilution series with and without inhibitor is tasted within a 2 hour time period. Subjects are blinded as to the identity of the bitter compound and whether inhibitor is present or not. The two dilution series are presented in random order. […]

alkaline phosphatase = alkaline phosphatase (Bos taurus, UniProt P19111); type: biochemical, bovine; details: PNPP substrate
Sequence of alkaline phosphatase (P19111 20-506): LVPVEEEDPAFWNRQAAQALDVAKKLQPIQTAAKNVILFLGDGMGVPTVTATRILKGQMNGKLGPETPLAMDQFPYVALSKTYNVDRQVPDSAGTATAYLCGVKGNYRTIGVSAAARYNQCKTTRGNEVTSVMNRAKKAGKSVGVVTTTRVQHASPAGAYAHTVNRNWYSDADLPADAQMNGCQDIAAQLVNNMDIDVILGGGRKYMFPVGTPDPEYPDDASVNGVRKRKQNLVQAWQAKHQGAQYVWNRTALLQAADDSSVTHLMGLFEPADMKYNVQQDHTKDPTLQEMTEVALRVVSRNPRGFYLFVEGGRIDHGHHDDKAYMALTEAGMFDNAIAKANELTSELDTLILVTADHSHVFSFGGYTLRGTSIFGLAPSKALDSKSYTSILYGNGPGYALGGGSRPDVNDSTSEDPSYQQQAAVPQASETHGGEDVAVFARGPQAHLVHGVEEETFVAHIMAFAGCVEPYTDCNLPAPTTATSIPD
Method: Enzyme kinetics experiments are done using purified alkaline phosphatase from bovine intestine and the substrate para-nitrophenyl phosphate (PNPP). The formation of colored para-nitrophenol (PNP) from colorless PNPP is followed by measuring the color formation in the presence of inhibitor at several concentrations.
Specifically, enzyme reactions are done in a volume of 200 ul containing 12.5 mU/ml alkaline phosphatase, PNPP at concentrations between 0.5-200 mM, and an inhibitor at concentrations between 0-100 mM. […] Phosphoserine is the natural substrate for this enzyme. The final buffer solution is 0.9 M diethanolamine and 0.5 mM […], pH 9.8, mixed 3:1 (v:v) with water. Reactions are done in a 96-well microtiter plate. The enzyme reaction is initiated by the addition of the enzyme. Each reaction mixture is done in triplicate. The enzyme reaction is monitored by measuring the optical density (OD) at 405 nm, with a reference OD of 490 nm. The OD's are read every 30 seconds over a 15 minute period at room temperature. PNP concentration is determined based on a standard curve correlating OD405/490 vs. PNP concentration. […] The data is then transformed and plotted as the Kmapp / Vmax. vs. inhibitor concentration. From these plots the dissociation constant of the enzyme-inhibitor complex, Ki, is determined. The x-intercept on this plot equals (-Ki). […]

[2] = tested on: acid phosphatase (EC 3.1.3.2) type V; test: Acid phosphatase enzyme kinetics with PNPP substrate; type: biochemical, bovine
Method: Enzyme kinetics are done using purified acid phosphatase (EC 3.1.3.2) type V from bovine milk with PNPP as the substrate. The enzyme kinetics experiments are done similarly to the kinetics experiments for alkaline phosphatase, described above.
The buffer is 0.2 M sodium acetate buffer, pH 5.6. Reactions are done in a 96-well microtiter plate. The enzyme reaction is initiated by the addition of enzyme. The enzyme reaction is stopped by the addition of 50 ul of 3 N NaOH to each well. Reaction times are from 0-15 minutes, at 30 second intervals. As described previously, the reaction rate is determined by measurement of the formation of colored product, PNP, which correlates with OD405/490. Acid phosphatase has a linear enzyme reaction rate for 15 minutes with the concentration ranges tested. Calculation of the Ki is done as described above.

vanillylmonophosphate [VMP]
effect on taste cell response to denatonium benzoate (mud puppy taste cells; inhibitor mixed with denatonium benzoate): decreases the taste cell response | effect on taste cell response to dextromethorphan (mud puppy taste cells; inhibitor mixed with dextromethorphan): decreases the taste cell response | # VMP did not change threshold ([1]; CPC, n 2): 1 | # VMP increased threshold ([1]; CPC, n 2): 0 | % Subjects that VMP increased threshold ([1]; CPC, n 2): 0.00% | # VMP did not change threshold ([1]; acetaminophen, n 5): 3 | # VMP increased threshold ([1]; acetaminophen, n 5): 2 | % Subjects that VMP increased threshold ([1]; acetaminophen, n 5): 40.00% | # VMP did not change threshold ([1]; caffeine, n 4): 3 | # VMP increased threshold ([1]; caffeine, n 4): 0 | % Subjects that VMP increased threshold ([1]; caffeine, n 4): 0.00% | # VMP did not change threshold ([1]; chlorpheniramine maleate, n 5): 0 | # VMP increased threshold ([1]; chlorpheniramine maleate, n 5): 4 | % Subjects that VMP increased threshold ([1]; chlorpheniramine maleate, n 5): 80.00% | # VMP did not change threshold ([1]; cimetidine, n 2): 1 | # VMP increased threshold ([1]; cimetidine, n 2): 1 | % Subjects that VMP increased threshold ([1]; cimetidine, n 2): 50.00% | # VMP did not change threshold ([1]; denatonium benzoate, n 4): 2 | # VMP increased threshold ([1]; denatonium benzoate, n 4): 2 | % Subjects that VMP increased threshold ([1]; denatonium benzoate, n 4): 50.00% | # VMP did not change threshold ([1]; dextromethorphan, n 5): 4 | # VMP increased threshold ([1]; dextromethorphan, n 5): 1 | % Subjects that VMP increased threshold ([1]; dextromethorphan, n 5): 20.00% | # VMP did not change threshold ([1]; domiphen bromide, n 4): 3 | # VMP increased threshold ([1]; domiphen bromide, n 4): 1 | % Subjects that VMP increased threshold ([1]; domiphen bromide, n 4): 25.00% | # VMP did not change threshold ([1]; doxylamine succinate, n 3): 1 | # VMP increased threshold ([1]; doxylamine succinate, n 3): 2 | % Subjects that VMP increased threshold ([1]; doxylamine succinate, n 3): 66.67% | # VMP did not change threshold ([1]; famotidine, n 3): 3 | # VMP increased threshold ([1]; famotidine, n 3): 0 | % Subjects that VMP increased threshold ([1]; famotidine, n 3): 0.00% | # VMP did not change threshold ([1]; guaifenesin, n 8): 2 | # VMP increased threshold ([1]; guaifenesin, n 8): 2 | % Subjects that VMP increased threshold ([1]; guaifenesin, n 8): 25.00% | # VMP did not change threshold ([1]; phenylpropanolamine, n 7): 2 | # VMP increased threshold ([1]; phenylpropanolamine, n 7): 4 | % Subjects that VMP increased threshold ([1]; phenylpropanolamine, n 7): 57.14% | # VMP did not change threshold ([1]; pseudoephedrine, n 5): 2 | # VMP increased threshold ([1]; pseudoephedrine, n 5): 2 | % Subjects that VMP increased threshold ([1]; pseudoephedrine, n 5): 40.00% | # VMP did not change threshold ([1]; ranitidine, n 3): 1 | # VMP increased threshold ([1]; ranitidine, n 3): 1 | % Subjects that VMP increased threshold ([1]; ranitidine, n 3): 33.33% | # VMP did not change threshold ([1]; sucrose octaacetate, n 7): 4 | # VMP increased threshold ([1]; sucrose octaacetate, n 7): 1 | % Subjects that VMP increased threshold ([1]; sucrose octaacetate, n 7): 14.29% | type of inhibition of alkaline phosphatase (alkaline phosphatase): competitively inhibited | type of inhibition of acid phosphatase ([2]; PNPP substrate): competitively inhibited | Ki ([2]; PNPP substrate at room temperature, pH 5.6): 9.16 mM
